Measurements published in patent US5668159A, “1,3,4-thiadiazoles and 1,3,4-oxadiazoles as IIb/IIIa antagonists” (The DuPont Merck Pharmaceutical Company, priority 1996, dated 1997).
Structures can show the parent of a compound that is named as a salt. Where two headings read alike, the source gives them in different places.

Test system: platelet aggregation (platelet rich plasma (PRP))
Assay: Platelet Aggregation Assay (inhibition of agonist-induced platelet aggregation in platelet rich plasma)
Type: cell-based
Conditions: human PRP
Method: Platelet Aggregation Assay: Venous blood was obtained from the arm of a healthy human donor who was drug-free and aspirin-free for at least two weeks prior to blood collection. Blood was collected into 10 mL citrated Vacutainer tubes. The blood was centrifuged for 15 minutes at 150× g at room temperature, and platelet-rich plasma (PRP) was removed. The remaining blood was centrifuged for 15 minutes at 1500× g at room temperature, and platelet-poor plasma (PPP) was removed. Samples were assayed on a aggregometer (PAP-4 Platelet Aggregation Profiler), using PPP as the blank (100% transmittance). 200 μL of PRP was added to each micro test tube, and transmittance was set to 0%. 20 μL of various agonists (ADP, collagen, arachidonate, epinephrine, thrombin) were added to each tube, and the aggregation profiles were plotted (% transmittance versus time). The results are expressed as % inhibition of agonist-inducedplatelet aggregation. For the IC50 evaluation, the test compounds were added at various concentrations prior to the activation of the platelets.
Ester prodrugs were preincubated (10^-3 M F.C.) with 100 IU/mL Porcine liver esterase (Sigma Chemical Co., St. Louis, Mo., #E-3128) for 2 hours at 37° C. Aliquots are then diluted in 0.1M Tris, p H 7.4, to the desired concentrations. Aliquots of 20 μl of the esterase pretreated prodrugs are added to 200 μl of human platelet rich plasma. Samples were placed in platelet profiler (aggregometer) for 8 minutes at 37° C., followed by the addition of 100 μM Adenosine Diphosphate, (Sigma Chemical Co., St. Louis, Mo., #A-6521), to induce platelet aggregation. Platelet aggregation was allowed to proceed for 5 minutes. Percent inhibition is calculated using percent aggregation in the presence of the test compound divided by percent aggregation of control, times 100. This value is subtracted from 100, yielding percent inhibition. Calculation of IC50 is performed on a Texas Instruments TI59 with an IC50 program.
Table A below sets forth the antiplatelet activity of representative compounds of the present invention. The indicated compounds were tested for their ability to inhibit platelet aggregation (using platelet rich plasma (PRP)). The IC50 value (the concentration of antagonist which inhibits platelet aggregation by 50% relative to a control lacking the antagonist) is shown. In Table A the IC50 values are expressed as: +++=IC50 of <10 μM; ++=IC50 of […]; +=IC50 of 50-100 μM (μM=micromolar).

[1] = with esterase, ester prodrugs preincubated with 100 IU/mL porcine liver esterase 2 hours at 37° C., 100 μM ADP, read-out: Platelet Aggregation Assay IC50 (with esterase)
[2] = without esterase, read-out: Platelet Aggregation Assay IC50 (without esterase)

Compound | IC50 [1] [µM] | IC50 [2] [µM]
CCCCOC(=O)N[C@@H](CNC(=O)Cc1nnc(-c2ccc(NC(=N)N)cc2)o1)C(=O)OC [Example 335, Methyl N^3-[2-{2-(4-guanidinophenyl)-1,3,4-oxadiazol-5-yl}-acetyl]-N2-(n-butyloxycarbonyl)-2,3-(S)-diaminopropionate TFA salt] | < 10 | –
Cc1cccc(S(=O)(=O)N[C@@H](CNC(=O)CCCc2nnc(C3CCNCC3)s2)C(=O)O)c1 [Example 134, N^3-[4-{2-(4-piperidinyl)-1,3,4-thiadiazol-5-yl}-butyryl]-N^2-(3-methylphenylsulfonyl)-2,3-(S)-diaminopropionic acid TFA salt] | – | < 10
CCCCOC(=O)N[C@@H](CNC(=O)CSc1nnc(-c2ccc(NC(=N)N)cc2)o1)C(=O)OC [Example 242, Methyl N^3-[2-{2-(4-guanidinophenyl)-1,3,4-oxadiazol-5-ylthio}acetyl]-N^2-(n-butoxycarbonyl)-2,3-(S)-diaminopropionate TFA salt] | 10 to 50 | –
COC(=O)[C@H](CNC(=O)CCCc1nnc(C2CCNCC2)s1)NS(=O)(=O)c1cccc(C)c1 [Example 133, Methyl N^3-[4-{2-(4-piperidinyl)-1,3,4-thiadiazol-5-yl}-butyryl]-N^2-(3-methylphenylsulfonyl)-2,3-(S)-diaminopropionate TFA salt] | < 10 | –
COC(=O)[C@H](CNC(=O)Cc1nnc(-c2ccc(C(=N)N)cc2)s1)NS(=O)(=O)c1c(C)noc1C [Example 96, Methyl N^3-[2-{2-(4-amidinophenyl)-1,3,4-thiadiazol-5-yl}-acetyl]-N^2-(3,5-dimethylisoxazol-4-ylsulfonyl)-2,3-(S)-diaminopropionate TFA salt] | < 10 | –
CCCCOC(=O)N[C@@H](CNC(=O)CSc1nnc(-c2ccc(C(=N)N)cc2)s1)C(=O)O [Example 193, N^3-[2-{2-(4-Amidinophenyl)-1,3,4-thiadiazol-5-ylthio}acetyl]-N^2-(n-butoxycarbonyl)-2,3-(S)-diaminopropionic acid HCl salt] | – | < 10
CCOC(=O)[C@H](Cc1ccccc1)NC(=O)CSc1nnc(-c2ccc(C(=N)N)cc2)o1 [Example 399, Ethyl N-[2-{2-(4-amidinophenyl)-1,3,4-oxadiazol-5-ylthio}-acetyl]-(S)-phenylalanine HCl salt] | 10 to 50 | –
COC(=O)[C@H](CNC(=O)Cc1nnc(-c2ccc(NC(=N)N)cc2)s1)NS(=O)(=O)c1cccc(C)c1 [Example 145, Methyl N^3-[2-{2-(4-guanidinophenyl)-1,3,4-thiadiazol-5-yl}-acetyl]-N^2-(3-methylphenylsulfonyl)-2,3-(S)-diaminopropionate TFA salt] | < 10 | –
CCCCOC(=O)N[C@@H](CNC(=O)Cc1nnc(-c2ccc(C(=N)N)cc2)s1)C(=O)O [Example 2, N^3-[2-{2-(4-amidinophenyl)-1,3,4-thiadiazol-5-yl}-acetyl]-N^2-(n-butyloxycarbonyl)-2,3-(S)-diaminopropionic acid HCl salt] | – | < 10
COC(=O)[C@H](Cc1ccccc1)NC(=O)CSc1nnc(-c2ccc(NC(=N)N)cc2)o1 [Example 392, Methyl N-[2-{2-(4-guanidinophenyl)-1,3,4-oxadiazol-5-ylthio}-acetyl]-(S)-phenylalanine TFA salt] | 10 to 50 | –
COC(=O)[C@H](CNC(=O)Cc1nnc(-c2ccc(C(N)=O)cc2)s1)NS(=O)(=O)c1cccc(C)c1 [Example 170, Methyl N^3-[2-{2-(4-amidophenyl)-1,3,4-thiadiazol-5-yl}-acetyl]-N^2-(3-methylphenylsulfonyl)-2,3-(S)-diaminopropionate] | 50 to 100 | –
Cc1cccc(S(=O)(=O)N[C@@H](CNC(=O)Cc2nnc(-c3ccc(C(=N)N)cc3)s2)C(=O)O)c1 [Example 26, N^3-[2-{2-(4-amidinophenyl)-1,3,4-thiadiazol-5-yl}-acetyl]-N^2-(3-methylphenylsulfonyl)-2,3-(S)-diaminopropionic acid HCl salt] | – | < 10
Cc1cccc(S(=O)(=O)N[C@@H](CNC(=O)Cc2nnc(-c3ccc(NC(=N)N)cc3)s2)C(=O)O)c1 [Example 146, N^3-[2-{2-(4-guanidinophenyl)-1,3,4-thiadiazol-5-yl}-acetyl]-N^2-(3-methylphenylsulfonyl)-2,3-(S)-diaminopropionic acid TFA salt] | – | < 10
CCCCNC(=N)c1ccc(-c2nnc(CC(=O)NC[C@H](NS(=O)(=O)c3cccc(C)c3)C(=O)O)s2)cc1 [Example 65, N^3-[2-{2-(4-N-n-butylamidinophenyl)-1,3,4-thiadiazol-5-yl}-acetyl]-N^2-(3-methylphenylsulfonyl)-2,3-(S)-diaminopropionic acid HCl salt] | – | < 10
CNC(=N)c1ccc(-c2nnc(CC(=O)NC[C@H](NS(=O)(=O)c3cccc(C)c3)C(=O)OC)s2)cc1 [Example 44, Methyl N^3-[2-{2-(4-N-methylamidinophenyl)-1,3,4-thiadiazol-5-yl}-acetyl]-N^2-(3-methylphenylsulfonyl)-2,3-(S)-diaminopropionate TFA salt] | < 10 | –
Cc1noc(C)c1S(=O)(=O)N[C@@H](CNC(=O)Cc1nnc(-c2ccc(C(=N)N)cc2)s1)C(=O)O [Example 97, N^3-[2-{2-(4-amidinophenyl)-1,3,4-thiadiazol-5-yl}-acetyl]-N^2-(3,5-dimethylisoxazol-4-ylsulfonyl)-2,3-(S)-diaminopropionic acid HCl salt] | – | < 10
COC(=O)[C@H](CNC(=O)Cc1nnc(-c2ccc(C(=N)N)cc2)s1)NS(=O)(=O)c1cccc(C)c1 [Example 25, Methyl N^3-[2-{2-(4-amidinophenyl)-1,3,4-thiadiazol-5-yl}-acetyl]-N^2-(3-methylphenylsulfonyl)-2,3-(S)-diaminopropionate TFA salt] | < 10 | –
CCCCOC(=O)NC[C@H](NC(=O)CSc1nnc(-c2ccc(C(=N)N)cc2)s1)C(=O)OC [Example 440, Methyl N^2-[2-{2-(4-amidinophenyl)-1,3,4-thiodiazol-5-ylthio}-acetyl]-N^3-(n-butyloxycarbonyl)-2,3-(S)-diaminopropionate HCl salt] | < 10 | –
Cc1cccc(S(=O)(=O)N[C@@H](CNC(=O)Cc2nnc(-c3ccc(C(N)=O)cc3)s2)C(=O)O)c1 [Example 171, N^3-[2-{2-(4-Amidophenyl)-1,3,4-thiadiazol-5-yl}-acetyl]-N^2-(3-methylphenylsulfonyl)-2,3-(S)-diaminopropionic acid] | – | < 10
CCCCNC(=N)c1ccc(-c2nnc(CC(=O)NC[C@H](NS(=O)(=O)c3cccc(C)c3)C(=O)OC)s2)cc1 [Example 64, Methyl N^3-[2-{2-(4-N-n-butylamidinophenyl)-1,3,4-thiadiazol-5-yl}-acetyl]-N^2-(3-methylphenylsulfonyl)-2,3-(S)-diaminopropionate TFA salt] | < 10 | –
CCCCOC(=O)N[C@@H](CNC(=O)Cc1nnc(-c2ccc(C(=N)N)cc2)s1)C(=O)OC [Example 1, Methyl N^3-[2-{2-(4-amidinophenyl)-1,3,4-thiadiazol-5-yl}-acetyl]-N^2-(n-butyloxycarbonyl)-2,3-(S)-diaminopropionate TFA salt] | < 10 | –
Cc1ccccc1S(=O)(=O)N[C@@H](CNC(=O)Cc1nnc(-c2ccc(C(=N)N)cc2)s1)C(=O)O [Example 89, N^3-[2-{2-(4-amidinophenyl)-1,3,4-thiadiazol-5-yl}-acetyl]-N^2-(2-methylphenylsulfonyl)-2,3-(S)-diaminopropionate acid HCl salt] | – | < 10
CNC(=N)c1ccc(-c2nnc(CC(=O)NC[C@H](NS(=O)(=O)c3cccc(C)c3)C(=O)O)s2)cc1 [Example 63, N^3-[2-{2-(4-N-methylamidinophenyl)-1,3,4-thiadiazol-5-yl}-acetyl]-N^2-(3-methylphenylsulfonyl)-2,3-(S)-diaminopropionic acid HCl salt] | – | < 10
CCCCOC(=O)N[C@@H](CNC(=O)CSc1nnc(-c2ccc(C(=N)N)cc2)s1)C(=O)OC [Example 192, Methyl N^3-[2-{2-(4-amidinophenyl)-1,3,4-thiadiazol-5-ylthio}acetyl]-N^2-(n-butoxycarbonyl)-2,3-(S)-diaminopropionate HCl salt] | < 10 | –
COC(=O)[C@H](CNC(=O)Cc1nnc(-c2ccc(C(=N)N)cc2)s1)NS(=O)(=O)c1ccccc1C [Example 88, Methyl N^3-[2-{2-(4-amidinophenyl)-1,3,4-thiadiazol-5-yl}-acetyl]-N -(2-methylphenylsulfonyl)-2,3-(S)-diaminopropionate TFA salt] | < 10 | –
